Results: ChEMBL document CHEMBL1201862, “PubChem BioAssay data set” (2004)
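Results reflect a 48-hour exposure of cells in 96-well plates to compound at five concentrations. GI50 = concentration required for 50% inhibition of growth.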 The source made the active and inactive calls. Rule as the data show it: active = GI50 up to about 1.1 µM and inactive = higher.

Tests used:
Assay in all cases: inhibition of tumour cell growth, NCI panel, 48 h
SK-MEL-2 = tested on: SK-MEL-2
CCRF-CEM = tested on: CCRF-CEM
UACC-62 = tested on: UACC-62
EKVX = tested on: EKVX
OVCAR-5 = tested on: OVCAR-5
SN12C = tested on: SN12C
SF-295 = tested on: SF-295
SF-539 = tested on: SF-539
RXF 393 = tested on: RXF 393
786-0 = tested on: 786-0
OVCAR-8 = tested on: OVCAR-8
DMS-114 = tested on: DMS-114
Malme-3M = tested on: Malme-3M
TK-10 = tested on: TK-10
M14 = tested on: M14
SR = tested on: SR

Measured: GI50

COC(=O)/C(C)=C/[N+](=O)[O-]
inactive: SK-MEL-2 19.7 µM | CCRF-CEM 2.59 µM | UACC-62 17.9 µM | EKVX 15.9 µM | OVCAR-5 19.7 µM | SN12C 20.7 µM | SF-295 16.6 µM | SF-539 18.8 µM | RXF 393 21.2 µM | 786-0 17.7 µM | OVCAR-8 22.2 µM | DMS-114 18.2 µM | Malme-3M 17.3 µM | TK-10 16.3 µM | M14 15.7 µM

O=C1C=C(Nc2ccc(Cl)cc2C(=O)c2ccccc2)c2ccccc2C1=O
inactive: SK-MEL-2 > 100 µM | CCRF-CEM > 100 µM | UACC-62 > 100 µM | EKVX > 100 µM | OVCAR-5 > 100 µM | SN12C > 100 µM | SF-295 > 100 µM | SF-539 > 100 µM | RXF 393 > 100 µM | 786-0 > 100 µM | OVCAR-8 > 100 µM | DMS-114 > 100 µM | Malme-3M > 100 µM | TK-10 > 100 µM | M14 > 100 µM

COc1ccc(C2COc3c(ccc(OC)c3OC)C2=O)cc1OC (configuration not stated)
inactive: CCRF-CEM > 100 µM | UACC-62 > 100 µM | EKVX > 100 µM | SR > 100 µM | SN12C > 100 µM | SF-295 > 100 µM | SF-539 > 100 µM | RXF 393 > 100 µM | 786-0 > 100 µM | OVCAR-8 > 100 µM | DMS-114 68.7 µM | Malme-3M > 100 µM | TK-10 > 100 µM | M14 > 100 µM

O=C1CC2CC=C[C@H]3c4cc5c(cc4C(=O)N1C23)OCO5 (some centres not stated)
inactive: CCRF-CEM > 50 µM | UACC-62 > 50 µM | EKVX > 50 µM | SN12C > 50 µM | SF-295 > 50 µM | SF-539 > 50 µM | RXF 393 > 50 µM | 786-0 > 50 µM | OVCAR-8 > 50 µM | DMS-114 > 50 µM | Malme-3M > 50 µM | TK-10 > 50 µM | M14 > 50 µM

CC1OC(CC(=O)O)Cc2c(O)c3c(c(O)c21)C(=O)C=C(C1=CC(=O)c2c(O)c4c(c(O)c2C1=O)CC(CC(=O)O)OC4C)C3=O (configuration not stated)
inactive: SK-MEL-2 21.2 µM | CCRF-CEM 2.75 µM | UACC-62 12.8 µM | EKVX 13.5 µM | SR 3.69 µM | OVCAR-5 43.8 µM | SN12C 16.6 µM | SF-295 88.7 µM | SF-539 19.1 µM | RXF 393 6.14 µM | 786-0 21.4 µM | OVCAR-8 23.4 µM | DMS-114 15 µM | Malme-3M 14.5 µM | TK-10 57.9 µM | M14 15 µM

COC[C@@H]1[C@H]2OC(C)(C)O[C@H]2C(=O)N1C(=O)c1ccc(OC)cc1
inactive: SK-MEL-2 > 100 µM | CCRF-CEM > 100 µM | UACC-62 > 100 µM | EKVX > 100 µM | SR > 100 µM | OVCAR-5 > 100 µM | SN12C > 100 µM | SF-295 > 100 µM | SF-539 > 100 µM | RXF 393 > 100 µM | 786-0 > 100 µM | OVCAR-8 > 100 µM | DMS-114 > 100 µM | Malme-3M > 100 µM | TK-10 > 100 µM | M14 > 100 µM

O=c1ccc2ccccc2c2ccccc12
inactive: SK-MEL-2 3.43 µM | CCRF-CEM 3.2 µM | UACC-62 2.27 µM | EKVX 17.3 µM | SR 1.52 µM | OVCAR-5 2.82 µM | SN12C 2.46 µM | SF-295 3.61 µM | SF-539 1.97 µM | 786-0 2.77 µM | OVCAR-8 2.34 µM | DMS-114 2.41 µM | Malme-3M 10.4 µM | TK-10 14.5 µM | M14 2.42 µM

Cc1cccc(NC(=O)C(=O)Cc2nc3ccccc3nc2O)c1C
inactive: CCRF-CEM > 100 µM | UACC-62 > 100 µM | EKVX > 100 µM | SR > 100 µM | OVCAR-5 > 100 µM | SN12C > 100 µM | SF-295 > 100 µM | SF-539 > 100 µM | RXF 393 > 100 µM | 786-0 > 100 µM | OVCAR-8 > 100 µM | DMS-114 > 100 µM | Malme-3M > 100 µM | TK-10 > 100 µM | M14 > 100 µM

Cc1ccc2c(c1)CN1c3ccc(C)cc3CN2C1c1ccccc1O
inactive: SK-MEL-2 48.9 µM | CCRF-CEM 47.9 µM | UACC-62 25.1 µM | EKVX 7.19 µM | SR 11.7 µM | OVCAR-5 18.6 µM | SN12C 29.9 µM | SF-295 46.8 µM | SF-539 49 µM | RXF 393 7.18 µM | 786-0 42.5 µM | OVCAR-8 > 100 µM | DMS-114 16.8 µM | Malme-3M > 100 µM | TK-10 26.2 µM | M14 > 100 µM

O=c1[nH]c(=O)n(C2CC(O)C(CO)O2)cc1C#Cc1ccc(C(F)(F)F)cc1 (configuration not stated)
inactive: SK-MEL-2 > 100 µM | CCRF-CEM > 100 µM | UACC-62 > 100 µM | EKVX 63.2 µM | SR > 100 µM | OVCAR-5 > 100 µM | SN12C > 100 µM | SF-295 > 100 µM | SF-539 > 100 µM | RXF 393 > 100 µM | 786-0 > 100 µM | OVCAR-8 > 100 µM | DMS-114 > 100 µM | Malme-3M > 100 µM | TK-10 > 100 µM | M14 > 100 µM

Cc1cccc(/C=N/C23CC4CC(CC(C4)C2)C3)c1
inactive: SK-MEL-2 > 100 µM | CCRF-CEM > 100 µM | UACC-62 > 100 µM | EKVX > 100 µM | OVCAR-5 > 100 µM | SN12C > 100 µM | SF-295 > 100 µM | SF-539 > 100 µM | RXF 393 > 100 µM | 786-0 > 100 µM | OVCAR-8 > 100 µM | DMS-114 > 100 µM | Malme-3M > 100 µM | TK-10 > 100 µM | M14 > 100 µM

COc1ccc(C2CC(C)=Nc3c(O)nc(S)nc3N2)cc1 (configuration not stated)
inactive: SK-MEL-2 63.8 µM | CCRF-CEM 24.2 µM | UACC-62 17.4 µM | EKVX 22.1 µM | SR 25.6 µM | OVCAR-5 23.4 µM | SN12C 19.4 µM | SF-295 22 µM | SF-539 24.5 µM | RXF 393 18.8 µM | 786-0 17.1 µM | OVCAR-8 20 µM | DMS-114 21 µM | Malme-3M > 100 µM | TK-10 20.8 µM | M14 19.6 µM
